This note sets out measurements from patent US7696238B2, “Substituted benzo[d]isoxazol-3-yl amine compounds as analgesics” (Gruenenthal GmbH, priority 2005, dated 2010).

Assay [1] has as its target T1, KCNQ2/3 ion channel (KCNQ2/3-expressing CHO-K1 cells) (Homo sapiens, UniProt O43525+O43526).
T1 construct: expressed in transfected cells; host or cells: CHO-K1
As to the kind of experiment: Fluorescence assay (FLIPR instrument, membrane potential dye) for substances acting agonistically on the KCNQ2/3 ion channel. It counts as cell-based. To be noted: difference between maximum and minimum values, agonistic action detected from a value of −40 (and below). The method, then:
Pharmacological Test Methods I. Fluorescence Assay (FLIPR™ Instrument) for the Identification of Substances Acting Agonistically on the KCNQ2/3 Ion Channel
On the day before the experiment, KCNQ2/3-expressing CHO-K1 cells and CHO-K1 empty strain cells were seeded out onto coated poly-D-lysine black/clear plates (Falcon/BD Company; Order No.: 356640) in a concentration of 20000 cells/100 μl MEM alpha, 50 ml FCS, 5.5 ml PIS/G/solution (100×) and then incubated for 20-24 hours in an incubator (37° C., 5% CO2). On the day of the experiment the HBSS/hepes working solution and the FMP/HBSS/hepes mixture (Membrane Potential Assay Kit Red (FMP), bulk format Cat. No. R8123) were initially prepared according to the following protocol:
• 1000 ml 1× HBSS buffer (Hank's Balanced Salt Solution (1×) (Gibco; No. 14025)+10 ml hepes (1M stock solution, pH 7.4; hepes Na salt (Sigma Company; No. H7006-500 g; storage at 4° C. in a refrigerator) 2. 1× FMP/HBSS/hepes working solution: • 6 ml HBSS/hepes buffer are added to 5 ml of the FMP solution stored at −20° C. (preparation see below; thawing out at room temperature). The test substances (2 mM batch solution in 100% DMSO) contained in drug plates (Costar 96-well plates, catalogue No. 3795) were then diluted by adding HBSS/hepes buffer to a concentration of 30 μM (3× concentrated). The assay plates on which the cells grow were washed once with 200 μl HBSS/hepes (Cellwash Washer, Labsystems Company, catalogue No. 5161550) and the remaining volume was removed by tapping out the inverted plate twice. 100 μl of the FMP/HBSS/hepes working solution were then added in each case to the cell plates and incubated for 1 hour in the CO2 incubator at 37° C. and 5% CO2. The measurements are then carried out with a FLIPR III instrument from the Molecular Devices company (96-format, using the 540-590 nm band-pass filter in the #2 localization). In the experimental setup of the FLIPR software, filter #2 should be selected. The cell plates and the substance plates were fed alternately into the input stack. A signal test was carried out in each case with the cell plates before adding the substance. The test substances were then added via the pipetting unit of the FLIPR (added volume 50 μl, 3× concentrated, end concentration 10 μM) to the cavities of the cell plates in a total volume of 150 μl/well. The threshold data of the FLIPR program were as follows:
The pipette tips were washed after each pipetting procedure 3 times with 1% DMSO in water. The times of the measurement intervals after addition of the test substances are as follows:
Total measurement time: 6 min/plate
The test samples were evaluated by calculating the difference between the maximum and minimum values. EC50/IC50 values are calculated using the Graph Pad Prism software.
Preparation of the membrane potential loading buffer (membrane potential assay kit red (FMP), bulk format cat. No. R8123) according to the manufacturer's instructions:
10 ml of the 10× assay buffer (component B) were diluted with 90 ml of sterile water and then adjusted to pH 7.4 with 1.0N NaOH (1× assay buffer). One vessel with the FLIPR membrane potential assay component A was completely dissolved in 100 ml 1× assay buffer and thoroughly mixed for 10 minutes with a magnetic stirrer. 5 ml aliquots were then stored at −20° C. (storage shelf life ca. 2 weeks).
An agonistic action can be detected starting from a value of −40 (and below).

Assay [2] has as its target T2, hKCNQ2/3 (stably transfected hKCNQ2/3 CHO-K1 cell line) (Homo sapiens, UniProt O43525+O43526).
T2 construct: expressed in transfected cells; host or cells: CHO-K1
In words: Voltage clamp (patch-clamp) measurements, current increase relative to retigabin. It counts as cell-based. To be noted: test substance 10 μM at −40 mV; current increase standardized to retigabin (10 μM) effect. The method, then:
II. Voltage Clamp Measurements
In order to confirm electrophysiologically a KCNQ2/3 agonistic action of the substances, patch-clamp measurements [see Hamill O P, Marty A, Neher E, Sakmann B, Sigworth F J: “Improved patch-clamp techniques for high-resolution current recording from cells and cell-free membrane patches”, Pflugers Arch. 1981 August; 391(2):85-100] were carried out in the voltage clamp mode on a stably transfected hKCNQ2/3 CHO-K1 cell line. After formation of the gigaseal the cells were first of all clamped at a holding potential of −60 mV. Depolarising voltage jumps were then applied up to a potential of +20 mV (increment: 20 mV, duration: 1 second), in order to confirm the functional expression of KCNQ2/3 typical currents. The substances were tested at a potential of −40 mV. The current increase induced by retigabin (10 μM) was first of all recorded on each cell at −40 mV as positive control. After completely washing out the retigabin effect (duration: 80 sec) the test substance (10 μM) was applied. The current increase induced by the test substance was standardized to the retigabin effect and stated as relative efficacy (see below).

On to `CCCCc1ccc(CNc2noc3cc(F)ccc23)cc1` [Example 171, (4-butylbenzyl)-(6-fluorobenzo[d]isoxazol-3-yl)-amine], for which the “FLIPR membrane potential fluorescence change (ΔF %, max minus min); negative values indicate KCNQ2/3 agonism” value in assay [1] is −53%. For the same compound, the “Voltage clamp: relative efficacy with respect to retigabin [10 μM]” value (“Voltage clamp: relative efficacy” below) in assay [2] was found to be 0.68.

Regarding `Fc1ccc2c(NCc3cccc(OCc4ccccc4)c3)noc2c1` [Example 173, (3-benzyloxybenzyl)-(6-fluorobenzo[d]isoxazol-3-yl)-amine], the “FLIPR membrane potential fluorescence change (ΔF %, max minus min); negative values indicate KCNQ2/3 agonism” value in assay [1] is −55%. Besides, the “Voltage clamp: relative efficacy” value in assay [2] came to 0.84.

Regarding `Cc1cc(C)cc(CNc2noc3cccc(N)c23)c1` [Example 174, N3-(3,5-dimethylbenzyl)-benzo[d]isoxazole-3,4-diamine], in assay [1], the “FLIPR membrane potential fluorescence change (ΔF %, max minus min); negative values indicate KCNQ2/3 agonism” value is −45.5%. Moreover, in assay [2], the “Voltage clamp: relative efficacy” value came out at 0.8.

Consider `CCCCc1ccc(CNc2noc3cccc(N)c23)cc1` [Example 175, N3-(4-butylbenzyl)-benzo[d]isoxazole-3,4-diamine], for which the “FLIPR membrane potential fluorescence change (ΔF %, max minus min); negative values indicate KCNQ2/3 agonism” value in assay [1] is −57.7%. The “Voltage clamp: relative efficacy” value in assay [2] came to 0.59.
